Organism: Rattus norvegicus
Assay: DrugMatrix - Regimen: Daily Repeat
Format: toxicity, organism-based, Sprague-Dawley
Set-up: regimen Daily Repeat, gender Male, age 6-8 weeks
Settings: in vivo, po, route oral GAVAGE, vehicle .5 % CMC; for ABSOLUTE BASOPHIL / ABSOLUTE EOSINOPHIL / ABSOLUTE LYMPHOCYTE / ABSOLUTE MONOCYTE / ABSOLUTE SEGMENTED NEUTROPHIL / BASOPHIL / EOSINOPHIL / ERYTHROCYTE COUNT / HEMATOCRIT / HEMOGLOBIN / LEUKOCYTE COUNT / LYMPHOCYTE / MEAN CORPUSCULAR HEMOGLOBIN / MEAN CORPUSCULAR HEMOGLOBIN CONCENTRATION / MEAN CORPUSCULAR VOLUME / MONOCYTE / NEUTROPHIL / NUCLEATED RED BLOOD CELLS / PLATELET COUNT: tissue Blood; for ALANINE AMINOTRANSFERASE / ALBUMIN / ALKALINE PHOSPHATASE / ASPARTATE AMINOTRANSFERASE / BLOOD UREA NITROGEN / CARBON DIOXIDE / CHLORIDE / CHOLESTEROL / CREATINE PHOSPHOKINASE / CREATININE / GLUCOSE / LACTATE DEHYDROGENASE / LIPASE / PHOSPHORUS / POTASSIUM / SODIUM / TOTAL BILIRUBIN / TOTAL PROTEIN / URIC ACID: tissue Plasma
[1] = 0 mg/kg, 72 h, dose level Control, time 3 day
[2] = 0 mg/kg, 120 h, dose level Control, time 5 day
[3] = 150 mg/kg, 72 h, dose level Low, time 3 day

## C[C@]1(Cn2ccnn2)[C@H](C(=O)O)N2C(=O)C[C@H]2S1(=O)=O [TAZOBACTAM]
[1]
  ABSOLUTE BASOPHIL: 0 CELLS/uL
  ABSOLUTE EOSINOPHIL: 222.83 CELLS/uL
  ABSOLUTE LYMPHOCYTE: 14453 CELLS/uL
  ABSOLUTE MONOCYTE: 0 CELLS/uL
  ABSOLUTE SEGMENTED NEUTROPHIL: 1490.83 CELLS/uL
  BASOPHIL: 0%
  EOSINOPHIL: 1.33%
  ERYTHROCYTE COUNT: 5.76 x10E6/uL
  HEMATOCRIT: 36.52%
  HEMOGLOBIN: 13.45 G/DL
  LEUKOCYTE COUNT: 16.17 x10E3/uL
  LYMPHOCYTE: 89.33%
  MEAN CORPUSCULAR HEMOGLOBIN: 23.37 pg
  MEAN CORPUSCULAR HEMOGLOBIN CONCENTRATION: 36.85 G/DL
  MEAN CORPUSCULAR VOLUME: 63.47 fL
  MONOCYTE: 0%
  NEUTROPHIL: 9.33%
  NUCLEATED RED BLOOD CELLS: 0 /100WBC
  PLATELET COUNT: 1239.5 x10E3/uL
  ALANINE AMINOTRANSFERASE: 43.83 u/L
  ALBUMIN: 4.27 G/DL
  ALKALINE PHOSPHATASE: 398.83 u/L
  ASPARTATE AMINOTRANSFERASE: 81.17 u/L
  BLOOD UREA NITROGEN: 17.67 mg/dL
  CARBON DIOXIDE: 27.5 mmol/L
  CHLORIDE: 99.17 MEQ/L
  CHOLESTEROL: 74 mg/dL
  CREATINE PHOSPHOKINASE: 331.5 u/L
  CREATININE: 0.2 mg/dL
  GLUCOSE: 171.33 mg/dL
  LACTATE DEHYDROGENASE: 241.67 u/L
  LIPASE: 9.5 u/L
  PHOSPHORUS: 12.25 mg/dL
  POTASSIUM: 6.33 MEQ/L
  SODIUM: 141.28 MEQ/L
  TOTAL BILIRUBIN: 0.15 mg/dL
  TOTAL PROTEIN: 5.98 G/DL
  URIC ACID: 1.63 mg/dL
[2]
  ABSOLUTE BASOPHIL: 0 CELLS/uL
  ABSOLUTE EOSINOPHIL: 148.67 CELLS/uL
  ABSOLUTE LYMPHOCYTE: 16020.5 CELLS/uL
  ABSOLUTE MONOCYTE: 29.17 CELLS/uL
  ABSOLUTE SEGMENTED NEUTROPHIL: 1468.33 CELLS/uL
  BASOPHIL: 0%
  EOSINOPHIL: 1%
  ERYTHROCYTE COUNT: 5.78 x10E6/uL
  HEMATOCRIT: 35.77%
  HEMOGLOBIN: 13.4 G/DL
  LEUKOCYTE COUNT: 17.67 x10E3/uL
  LYMPHOCYTE: 90.5%
  MEAN CORPUSCULAR HEMOGLOBIN: 23.22 pg
  MEAN CORPUSCULAR HEMOGLOBIN CONCENTRATION: 37.47 G/DL
  MEAN CORPUSCULAR VOLUME: 61.92 fL
  MONOCYTE: 0.17%
  NEUTROPHIL: 8.33%
  NUCLEATED RED BLOOD CELLS: 0.17 /100WBC
  PLATELET COUNT: 1255.5 x10E3/uL
  ALANINE AMINOTRANSFERASE: 46.5 u/L
  ALBUMIN: 4.38 G/DL
  ALKALINE PHOSPHATASE: 336 u/L
  ASPARTATE AMINOTRANSFERASE: 76.5 u/L
  BLOOD UREA NITROGEN: 20 mg/dL
  CARBON DIOXIDE: 27.5 mmol/L
  CHLORIDE: 101 MEQ/L
  CHOLESTEROL: 71.33 mg/dL
  CREATINE PHOSPHOKINASE: 231.83 u/L
  CREATININE: 0.37 mg/dL
  GLUCOSE: 168.83 mg/dL
  LACTATE DEHYDROGENASE: 174 u/L
  LIPASE: 8.67 u/L
  PHOSPHORUS: 11.48 mg/dL
  POTASSIUM: 6.82 MEQ/L
  SODIUM: 143.8 MEQ/L
  TOTAL BILIRUBIN: 0.2 mg/dL
  TOTAL PROTEIN: 5.98 G/DL
  URIC ACID: 1.83 mg/dL
[3]
  ABSOLUTE BASOPHIL: 0 CELLS/uL
  ABSOLUTE EOSINOPHIL: 82.67 CELLS/uL
  ABSOLUTE LYMPHOCYTE: 6416 CELLS/uL
  ABSOLUTE MONOCYTE: 0 CELLS/uL
  ABSOLUTE SEGMENTED NEUTROPHIL: 534.67 CELLS/uL
  BASOPHIL: 0%
  EOSINOPHIL: 1%
  ERYTHROCYTE COUNT: 5.07 x10E6/uL
  HEMATOCRIT: 32.53%
  HEMOGLOBIN: 12.5 G/DL
  LEUKOCYTE COUNT: 7.03 x10E3/uL
  LYMPHOCYTE: 91.67%
  MEAN CORPUSCULAR HEMOGLOBIN: 24.63 pg
  MEAN CORPUSCULAR HEMOGLOBIN CONCENTRATION: 38.43 G/DL
  MEAN CORPUSCULAR VOLUME: 64.17 fL
  MONOCYTE: 0%
  NEUTROPHIL: 7.33%
  NUCLEATED RED BLOOD CELLS: 0 /100WBC
  PLATELET COUNT: 1184.33 x10E3/uL
  ALANINE AMINOTRANSFERASE: 52.67 u/L
  ALBUMIN: 4.23 G/DL
  ALKALINE PHOSPHATASE: 410.33 u/L
  ASPARTATE AMINOTRANSFERASE: 79.67 u/L
  BLOOD UREA NITROGEN: 16.67 mg/dL
  CARBON DIOXIDE: 24.33 mmol/L
  CHLORIDE: 104 MEQ/L
  CHOLESTEROL: 78 mg/dL
  CREATINE PHOSPHOKINASE: 280.33 u/L
  CREATININE: 0.2 mg/dL
  GLUCOSE: 152.33 mg/dL
  LACTATE DEHYDROGENASE: 134.33 u/L
  LIPASE: 8 u/L
  PHOSPHORUS: 11.47 mg/dL
  POTASSIUM: 6.02 MEQ/L
  SODIUM: 144.87 MEQ/L
  TOTAL BILIRUBIN: 0.2 mg/dL
  TOTAL PROTEIN: 5.9 G/DL
  URIC ACID: 1.03 mg/dL

From ChEMBL document CHEMBL3885881, “DrugMatrix”
